Legend:
[1] = system: mouse megakaryocyte progenitors (Meg-CFC); assay: Megakaryocyte progenitor (Meg-CFC) assay on bone marrow of treated mice; assay type: in vivo
Procedure: Primary mouse bone marrow cells were suspended in IMDM at a concentration of 8×10^6 cells/mL. Two-hundred thousand cells were plated in IMDM supplemented with 20% BIT9500, 0.2% 2-mercaptoethanol, 2% Glutamax, and 20% Cellgro-H20 (Mediatech, Herndon, Va.) and cultured with rhTPO (50 ng/mL), IL-3 (10 ng/mL) (Preprotech, Rocky Hill, N.J.), IL-6 (20 ng/mL) (Preprotech), IL-11 (Preprotech) (50 ng/mL), and collagen at 37° for 7 days (Tober et al., “The Megakaryocyte Lineage Originates from Hemangioblast Precursors and is an Integral Component Both of Primitive and of Definitive Hematopoiesis,” Blood 109:1433-1441 (2007), which is hereby incorporated by reference in its entirety). Collagen gels were dehydrated, fixed, and labeled with GPIbβ and GPV, modified by ABC (Vector Labs, Burlingame, Calif.), and developed in Vector Red (Vector Labs). Meg-CFC were defined by their ability to generate colonies containing at least three megakaryocytes.

[2] = system: primary mouse megakaryocytes; assay: DNA content analysis of primary mouse megakaryocytes; assay type: cell-based
Procedure: (§1) Bone marrow was isolated from the femora of male C57BL/6 mice (Jackson Laboratories, Bar Harbor, Me.) and plated at a concentration of 1×10^6 cells per well in 12-well plates in IMDM (Iscove's Modified Dulbecco's Media, Invitrogen) with 20% BIT 9500 (BSA, insulin, transferrin) and supplemented with 100 ng/mL of rhTPO. Cells were cultured for 5 days, following which 15d-PGJ2 (10 μM) was added to the culture medium for 24 h. On the sixth day, cells were examined by phase-contrast microscopy using an inverted microscope (Olympus IX81) and images were captured using SPOT RT software (New Hyde Park, N.Y.). Megakaryocytes were identified by preincubating with anti-mouse CD16/32 (FcγR-blocking antibody) and then incubating with PE-conjugated hamster anti-mouse CD41 antibody.
Cells were fixed in 95% ethanol, treated with RNAse (Sigma) followed by 20 μg/mL propidium iodide (Sigma) to stain DNA, and analyzed by flow cytometry.

[3] = system: primary mouse megakaryocytes; assay: Platelet production from cultured mouse bone marrow megakaryocytes; assay type: cell-based, mouse (C57BL/6)
Procedure: as §1
Platelets were isolated from megakaryocytes by centrifugation at 150 xg for 10 min. Supernatants underwent sequential centrifugation (500 xg for 10 min and 1000×g for 10 min). The remaining platelet pellet was fixed then permeabilized with a CD61 or CD41 antibody. 7-AAD (BD Pharmingen) was added for 10 min before analyzing the cells by flow cytometry. […]

[4] = system: primary human megakaryocytes; assay: Platelet production from human cord blood CD34+-derived megakaryocytes; assay type: cell-based; conditions: 10 μM, 24 h
Procedure: Human CD34+ cord blood cells were obtained from the National Disease Research Interchange (NDRI, Philadelphia, Pa.). Cells were plated at 2.5×10^5 cells per well in a 12-well plate and cultured in serum-free medium as previously described (Zeuner et al., “Chemotherapy-induced Thrombocytopenia Derives from the Selective Death of Megakaryocyte Progenitors and Can Be Rescued by Stem Cell Factor,” Cancer Res 67:4767-4773 (2007), which is hereby incorporated by reference in its entirety) and supplemented with 100 ng/mL of rhTPO. After 14 days in culture, megakaryocytes were identified by staining with a CD61-FITC antibody and analyzed on a BD Biosciences FACSCalibur flow cytometer. Data were analyzed using FlowJo software (Treestar, Ashland, Oreg.). Cell images were captured using an inverted microscope (Olympus IX81). Platelets were isolated from megakaryocytes by centrifugation at 150 xg for 10 min. Supernatants underwent sequential centrifugation (500 xg for 10 min and 1000×g for 10 min). The remaining platelet pellet was fixed then permeabilized with a CD61 or CD41 antibody. 7-AAD (BD Pharmingen) was added for 10 min before analyzing the cells by flow cytometry. Platelets were identified using three well-described parameters (Patel et al., “The Biogenesis of Platelets from Megakaryocyte Proplatelets,” J Clin Invest 115:3348-3354 (2005); Breton-Gorius et al., “Expression of Platelet Proteins During the In Vitro and In Vivo Differentiation of Megakaryocytes and Morphological Aspects of Their Maturation,” Semin Hematol 23:43-67 (1986); Ogura et al., “Establishment of a Novel Human Megakaryoblastic Leukemia Cell Line, MEG-01, With Positive Philadelphia Chromosome,” Blood 66:1384-1392 (1985) and Franks et al., “A Fluorescence Microscopy Method for Quantifying Levels of Prostaglandin Endoperoxide H Synthase-1 and CD-41 in MEG-01 Cells,” Biol Proced Online 3:54-63 (2001), each of which is hereby incorporated by reference in its entirety), size (using normal human platelets as a control), presence of CD61 or CD41 and lack of DNA as determined by the absence of 7-AAD staining Ten thousand platelet events were collected and platelets were quantified by rate (platelet events/second) (Chung et al., “Platelet Activation in Acute, Decompensated Congestive Heart Failure,” Thromb Res 120:709-713 (2007), which is hereby incorporated by reference in its entirety.

Meg-01 cells = assay: Active-caspase protein in Meg-01 cells; assay type: cell-based, human; conditions: Meg-01 cells in the presence of 15d-PGJ2
[5] = mice injected 1 mg/kg for two consecutive days, 7 days of culture

CCCCCC=CC=C1C(=O)C=C[C@@H]1CC=CCCCC(=O)O [15d-PGJ2, 15-deoxy-Δ^12,14 prostaglandin J2]
megakaryocyte number [1]: failed to increase megakaryocyte number
megakaryocyte colony number (Meg-CFC) [1, 5]: did not influence megakaryocyte colony number or colony size
megakaryocyte colony size (Meg-CFC) [1, 5]: did not influence megakaryocyte colony number or colony size
percentage of megakaryocytes producing proplatelets [1, 5]: significantly augmented the percentage of megakaryocytes producing proplatelets
primary mouse megakaryocyte ploidy ([2]; by 24 h): enhanced primary mouse megakaryocyte ploidy
DNA content ([2]; primary mouse megakaryocytes, 10 μM, 24 h): increased DNA content
increase in percentage of CD61+ platelets in culture ([3]; mouse bone marrow cultured 5 days with rhTPO, then 10 μM for 24 h): ~14%
megakaryocyte surface morphology ([3]; mouse megakaryocytes, 10 μM, 24 h, microscopy): induced the appearance of ruffled edges on the megakaryocytes
number of platelets generated from human megakaryocytes ([4]; CD61+ cells from cord blood CD34+ cells): doubled
proplatelet formation ([4]; human megakaryocytes, microscopy): induced proplatelet formation
active-caspase protein (Meg-01 cells): upregulated active-caspase protein

Reference: US9012439B2, “Use of electrophilic compounds for inducing platelet production or maintaining platelet function” (University of Rochester, priority 2007, dated 2015)
